PubChem BioAssay AID2060613 (Molecular Pharmacology Branch, DTP, NCI, 2025)
Several values for one entry are separate records, joined by “and”; a condition that tells them apart may be missing. Identical values can stand only once.

Test system: 233499-124-R-J3-PDC complex spheroid viability
Test: Anticancer human tumor 233499-124-R-J3-PDC patient-derived colon adenocarcinoma cell line growth inhibition [CLK]
Conditions: for viability, T/C: stronger effect = lower value
Summary of the method: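 Multi-cell-type spheroids combined patient-derived tumor cells with HUVEC endothelial cells and human mesenchymal stem cells. Paired agents were dosed in half-log steps down from about clinical Cmax, or from 10 microM where Cmax was unknown.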

[1] = curve of first compound, second compound 0.0316 µM
[2] = curve of first compound, second compound 0.1 µM
[3] = curve of first compound, second compound 0.316 µM
[4] = curve of first compound, second compound 1 µM
[5] = curve of first compound, second compound 3.16 µM
[6] = curve of first compound, second compound 10 µM
[7] = second compound 0.0316 µM, first compound 0.0316 µM
[8] = second compound 0.0316 µM, first compound 0.1 µM
[9] = second compound 0.0316 µM, first compound 0.316 µM
[10] = second compound 0.0316 µM, first compound 1 µM
[11] = second compound 0.0316 µM, first compound 3.16 µM
[12] = second compound 0.0316 µM, first compound 10 µM
[13] = second compound 0.1 µM, first compound 0.0316 µM
[14] = second compound 0.1 µM, first compound 0.1 µM
[15] = second compound 0.1 µM, first compound 0.316 µM
[16] = second compound 0.1 µM, first compound 1 µM
[17] = second compound 0.1 µM, first compound 3.16 µM
[18] = second compound 0.1 µM, first compound 10 µM
[19] = second compound 0.316 µM, first compound 0.0316 µM
[20] = second compound 0.316 µM, first compound 0.1 µM
[21] = second compound 0.316 µM, first compound 0.316 µM
[22] = second compound 0.316 µM, first compound 1 µM
[23] = second compound 0.316 µM, first compound 3.16 µM
[24] = second compound 0.316 µM, first compound 10 µM
[25] = second compound 1 µM, first compound 0.0316 µM
[26] = second compound 1 µM, first compound 0.1 µM
[27] = second compound 1 µM, first compound 0.316 µM
[28] = second compound 1 µM, first compound 1 µM
[29] = second compound 1 µM, first compound 3.16 µM
[30] = second compound 1 µM, first compound 10 µM
[31] = second compound 3.16 µM, first compound 0.0316 µM
[32] = second compound 3.16 µM, first compound 0.1 µM
[33] = second compound 3.16 µM, first compound 0.316 µM
[34] = second compound 3.16 µM, first compound 1 µM
[35] = second compound 3.16 µM, first compound 3.16 µM
[36] = second compound 3.16 µM, first compound 10 µM
[37] = second compound 10 µM, first compound 0.0316 µM
[38] = second compound 10 µM, first compound 0.1 µM
[39] = second compound 10 µM, first compound 0.316 µM
[40] = second compound 10 µM, first compound 1 µM
[41] = second compound 10 µM, first compound 3.16 µM
[42] = second compound 10 µM, first compound 10 µM
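Note: spheroids exposed to the drug combinations for seven days.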
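Throughout, for viability, T/C: percent viability relative to DMSO vehicle control wells taken as 100%.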

C=C(F)C(=O)N1CCN(c2nc(OCC3CCCN3C)nc3c2CCN(c2cccc4cccc(Cl)c24)C3)CC1CC#N (stereo not given) + CN1CCN(c2cc(C(=O)Nc3cc4cc(-c5cnn(C)c5)ccc4cn3)ccn2)CC1
IC50 [1]: > 10000 nM | IC50 [2]: > 10000 nM | IC50 [3]: 9650 nM | IC50 [4]: < 31.6 nM | IC50 [5]: < 31.6 nM | IC50 [6]: < 31.6 nM | viability, T/C [7]: 95.2% | viability, T/C [8]: 104% | viability, T/C [9]: 91.5% | viability, T/C [10]: 100% | viability, T/C [11]: 94.1% | viability, T/C [12]: 84% | viability, T/C [13]: 99.6% | viability, T/C [14]: 90.9% | viability, T/C [15]: 103% | viability, T/C [16]: 96% | viability, T/C [17]: 95.2% | viability, T/C [18]: 85.1% | viability, T/C [19]: 93.6% | viability, T/C [20]: 90.3% | viability, T/C [21]: 82.9% | viability, T/C [22]: 98.6% | viability, T/C [23]: 87.8% | viability, T/C [24]: 48.6% | viability, T/C [25]: 1.94% | viability, T/C [26]: 3.93% | viability, T/C [27]: 4.58% | viability, T/C [28]: 0.73% | viability, T/C [29]: 5.08% | viability, T/C [30]: 0.83% | viability, T/C [31]: 0.56% | viability, T/C [32]: 0.88% | viability, T/C [33]: 0.69% | viability, T/C [34]: 0.56% | viability, T/C [35]: 0.42% | viability, T/C [36]: 0.12% | viability, T/C [37]: 0.42% | viability, T/C [38]: 0.74% | viability, T/C [39]: 0.44% | viability, T/C [40]: 0.95% | viability, T/C [41]: 0.32% | viability, T/C [42]: 0.72%

C=CC(=O)N1CCN(c2nc(=O)n(-c3c(C)ccnc3C(C)C)c3nc(-c4c(O)cccc4F)c(F)cc23)C(C)C1 (stereo not given) + CN1CCN(c2cc(C(=O)Nc3cc4cc(-c5cnn(C)c5)ccc4cn3)ccn2)CC1
IC50 [1]: > 10000 nM | IC50 [2]: > 10000 nM | IC50 [3]: > 10000 nM | IC50 [4]: < 31.6 nM | IC50 [5]: < 31.6 nM | IC50 [6]: < 31.6 nM | viability, T/C [7]: 91% | viability, T/C [8]: 105% | viability, T/C [9]: 103% | viability, T/C [10]: 102% | viability, T/C [11]: 102% | viability, T/C [12]: 101% | viability, T/C [13]: 99.8% | viability, T/C [14]: 102% | viability, T/C [15]: 106% | viability, T/C [16]: 99.9% | viability, T/C [17]: 101% | viability, T/C [18]: 108% | viability, T/C [19]: 89.6% | viability, T/C [20]: 103% | viability, T/C [21]: 96% | viability, T/C [22]: 88.5% | viability, T/C [23]: 92.4% | viability, T/C [24]: 82.6% | viability, T/C [25]: 3.8% | viability, T/C [26]: 11.4% | viability, T/C [27]: 1.76% | viability, T/C [28]: 2.52% | viability, T/C [29]: 1.73% | viability, T/C [30]: 0.3% | viability, T/C [31]: 0.65% | viability, T/C [32]: 0.61% | viability, T/C [33]: 0.73% | viability, T/C [34]: 0.79% | viability, T/C [35]: 1.69% | viability, T/C [36]: 1.55% | viability, T/C [37]: 0.41% | viability, T/C [38]: 0.38% | viability, T/C [39]: 0.45% | viability, T/C [40]: 0.53% | viability, T/C [41]: 0.5% | viability, T/C [42]: 1.01%

CCN1CCN(Cc2ccc(Nc3ncc(F)c(-c4cc(F)c5nc(C)n(C(C)C)c5c4)n3)nc2)CC1
viability, T/C (compound 0.00316 µM): 100% and 102% | viability, T/C (compound 0.01 µM): 86.8% and 96.5% | viability, T/C (compound 0.0316 µM): 98.5% and 88% | viability, T/C (compound 0.1 µM): 93.8% and 104% | viability, T/C (compound 0.316 µM): 94.1% and 98.2% | viability, T/C (compound 1 µM): 102% and 64.3% | IC50 (curve of compound): > 1000 nM

COc1c(OCCCN2CCOCC2)ccc2c3n(c(=NC(=O)c4cnc(N)nc4)nc12)CCN3 + CNC(=O)c1ccc(Nc2nc(OC3CCCC3)c3c(-c4ccc5nc(C)oc5c4)c[nH]c3n2)c(OC)c1
IC50 [1]: 172 nM | IC50 [2]: 111 nM | IC50 [3]: 88.5 nM | IC50 [4]: 25.9 nM | IC50 [5]: 41.7 nM | IC50 [6]: 27.2 nM | viability, T/C (second compound 0.0316 µM, first compound 0.00316 µM): 90% | viability, T/C (second compound 0.0316 µM, first compound 0.01 µM): 91% | viability, T/C [7]: 81.6% | viability, T/C [8]: 65.3% | viability, T/C [9]: 33.2% | viability, T/C [10]: 5.74% | viability, T/C (second compound 0.1 µM, first compound 0.00316 µM): 70.5% | viability, T/C (second compound 0.1 µM, first compound 0.01 µM): 85.4% | viability, T/C [13]: 73.2% | viability, T/C [14]: 53.4% | viability, T/C [15]: 16.1% | viability, T/C [16]: 3.37% | viability, T/C (second compound 0.316 µM, first compound 0.00316 µM): 75.3% | viability, T/C (second compound 0.316 µM, first compound 0.01 µM): 81.8% | viability, T/C [19]: 68.8% | viability, T/C [20]: 45.7% | viability, T/C [21]: 22.6% | viability, T/C [22]: 3.62% | viability, T/C (second compound 1 µM, first compound 0.00316 µM): 73.5% | viability, T/C (second compound 1 µM, first compound 0.01 µM): 59.4% | viability, T/C [25]: 49% | viability, T/C [26]: 31.6% | viability, T/C [27]: 23% | viability, T/C [28]: 3.52% | viability, T/C (second compound 3.16 µM, first compound 0.00316 µM): 62.9% | viability, T/C (second compound 3.16 µM, first compound 0.01 µM): 68.1% | viability, T/C [31]: 50% | viability, T/C [32]: 38.8% | viability, T/C [33]: 15.3% | viability, T/C [34]: 2.16% | viability, T/C (second compound 10 µM, first compound 0.00316 µM): 75.1% | viability, T/C (second compound 10 µM, first compound 0.01 µM): 65.9% | viability, T/C [37]: 45.5% | viability, T/C [38]: 31% | viability, T/C [39]: 10.5% | viability, T/C [40]: 2.07%

NC(=O)C(=Cn1cnc(-c2cc(C(F)(F)F)cc(C(F)(F)F)c2)n1)c1cncnc1 + CNC(=O)c1ccc(Nc2nc(OC3CCCC3)c3c(-c4ccc5nc(C)oc5c4)c[nH]c3n2)c(OC)c1
IC50 [1]: 618 nM | IC50 [2]: 263 nM | IC50 [3]: 197 nM | IC50 [4]: 133 nM | IC50 [5]: 157 nM | IC50 [6]: 161 nM | viability, T/C (second compound 0.0316 µM, first compound 0.00949 µM): 85.5% | viability, T/C (second compound 0.0316 µM, first compound 0.03 µM): 85.5% | viability, T/C (second compound 0.0316 µM, first compound 0.0949 µM): 79.8% | viability, T/C (second compound 0.0316 µM, first compound 0.3 µM): 78.2% | viability, T/C (second compound 0.0316 µM, first compound 0.949 µM): 33.4% | viability, T/C (second compound 0.0316 µM, first compound 3 µM): 15.5% | viability, T/C (second compound 0.1 µM, first compound 0.00949 µM): 85.3% | viability, T/C (second compound 0.1 µM, first compound 0.03 µM): 80.8% | viability, T/C (second compound 0.1 µM, first compound 0.0949 µM): 72.8% | viability, T/C (second compound 0.1 µM, first compound 0.3 µM): 34.5% | viability, T/C (second compound 0.1 µM, first compound 0.949 µM): 44.1% | viability, T/C (second compound 0.1 µM, first compound 3 µM): 15.7% | viability, T/C (second compound 0.316 µM, first compound 0.00949 µM): 74.6% | viability, T/C (second compound 0.316 µM, first compound 0.03 µM): 90.3% | viability, T/C (second compound 0.316 µM, first compound 0.0949 µM): 81.5% | viability, T/C (second compound 0.316 µM, first compound 0.3 µM): 31.8% | viability, T/C (second compound 0.316 µM, first compound 0.949 µM): 35.3% | viability, T/C (second compound 0.316 µM, first compound 3 µM): 12% | viability, T/C (second compound 1 µM, first compound 0.00949 µM): 75.4% | viability, T/C (second compound 1 µM, first compound 0.03 µM): 75.1% | viability, T/C (second compound 1 µM, first compound 0.0949 µM): 51.2% | viability, T/C (second compound 1 µM, first compound 0.3 µM): 39.9% | viability, T/C (second compound 1 µM, first compound 0.949 µM): 11.4% | viability, T/C (second compound 1 µM, first compound 3 µM): 10.6% | viability, T/C (second compound 3.16 µM, first compound 0.00949 µM): 68.9% | viability, T/C (second compound 3.16 µM, first compound 0.03 µM): 65% | viability, T/C (second compound 3.16 µM, first compound 0.0949 µM): 71.1% | viability, T/C (second compound 3.16 µM, first compound 0.3 µM): 26.3% | viability, T/C (second compound 3.16 µM, first compound 0.949 µM): 9.48% | viability, T/C (second compound 3.16 µM, first compound 3 µM): 4.46% | viability, T/C (second compound 10 µM, first compound 0.00949 µM): 73.5% | viability, T/C (second compound 10 µM, first compound 0.03 µM): 69.8% | viability, T/C (second compound 10 µM, first compound 0.0949 µM): 67% | viability, T/C (second compound 10 µM, first compound 0.3 µM): 30.5% | viability, T/C (second compound 10 µM, first compound 0.949 µM): 6.86% | viability, T/C (second compound 10 µM, first compound 3 µM): 1.62%
